“Also recorded” adds a separate entry of the source.
Columns and labels:
[1] = system: NCI-H2030; assay: Cell proliferation assay (CellTiter-Glo), drug combination synergy by Bliss and ZIP models, NCI-H2030; type: cell-based; conditions: combination of compound 1 with KRAS G12C inhibitor (MRTX849, AMG510, ARS-1620 or JDQ-443); for synergy (anti-proliferation effects): NCI-H2030, SMARCA4 low/KRAS G12C, day 7; for Bliss synergy score / ZIP synergy score: NCI-H2030, synergistic effect likely where scores larger than 10
Experimental: FIG. 2. […] Lung cancer NCI-H2030 cells (SMARAC4 low/KRAS G12C) were treated with KRAS G12C inhibitor (MRTX849, AMG510, ARS1629 or JDQ-443) and with a SMARCA2 degrader (compound 1) in a different dose-range. Cell viability was analyzed on day 7 using Cell-titer Glo.
FIG. 5. Bliss and ZIP synergy scores of H2030 cells treated with a SMARCA2 degrader (compound 1) and a KRAS targeting therapy (MRTX849, AMG510, ARS1629 or JDQ443). Synergistic effect is likely where synergy scores are larger than 10.
(§1) The degree of combination synergy, or antagonism, is quantified by comparing the observed drug combination response against the expected response, calculated using a reference model that assumes no interaction between drugs. Drug synergy was determined using the Bliss and Zero interaction potency (ZIP) reference models.
(§2) The Bliss independence model assumes a stochastic process in which two drugs elicit their effects independently, and the expected combination effect can be calculated based on the probability of independent events; The ZIP model captures the drug interaction relationships by comparing the change in the potency (effect at certain dose level) of the dose-response curves between individual drugs and their combinations. ZIP assumes that two non-interacting drugs are expected to incur minimal changes in their dose-response curves. Model calculations can be found at www.ncbi.nlm.nih.gov/pmc/articles/PMC4759128/.
(§3) Cell proliferation assay: Cells were plated in 384-well white-walled, clear-bottom plates in standard tissue culture conditions. 250 cells per well of the NCI-H2030 (ATCC, CRL-5914) cell line was seeded in RPMI-1640 medium, FBS serum to a final concentration of 10%, 100 cells per well of the UM-UC-3 (ATCC, CRL-1749) cell line was seeded in EMEM medium, FBS serum to a final concentration of 10%. The day after plating, serial dilutions of two compounds were plated in dose-response matrices in quadruplicate, including DMSO controls, using a Tecan D300e Digital Dispenser (Tecan Group Ltd. Männedorf, Switzerland). All wells were normalized to highest total volume of DMSO. 7 days later the CellTiter-Glo® 2.0 Cell Viability Assay (CTG) (#G9242, Promega, Madison, WI) was used to measure cell viability effects of drug combinations. The expected drug combination responses were calculated based on Bliss and ZIP reference model using SynergyFinder (Ianevski et al, 2020). Deviations between observed and expected responses with positive and negative values denote synergy and antagonism respectively. Synergistic effect is likely where synergy scores are larger than 10. MRTX849 (Adagrasib, Catalog No. S8884) and ARS-1620 (Catalog No. S8707) were purchased from Selleck Chemicals. AMG510 (Sotorasib, Catalog No. HY-114277) and JDQ-443 (Catalog No. HY-139612) were purchased from MedChemExpress.
NCI-H2030 is a non-small cell lung cancer cell line that express low SMARCA4 and KRAS G12C mutation. Combination therapy was applied to H2030 cells and % viable cells was calculated (see FIG. 2). Bliss and ZIP scores are larger than 10, which indicates compound 1 and KRAS G12C inhibitors will likely show synergistic effects (FIG. 5).

[2] = system: UM-UC-3; assay: Cell proliferation assay (CellTiter-Glo), drug combination synergy by Bliss and ZIP models, UM-UC-3; type: cell-based, human; conditions: for synergy (anti-proliferation effects): combination of compound 1 with KRAS G12C inhibitor (MRTX849, AMG510, ARS1629 or JDQ443), UM-UC-3, SMARCA4 damaging mutation/KRAS G12C, day 7
Experimental: FIG. 3. […] Bladder cancer UM-UC-3 cells (SMARAC4 damaging mutation/KRAS G12C) were treated with KRAS G12C inhibitor (MRTX849, AMG510, ARS1629 or JDQ443) and with a SMARCA2 degrader (compound 1) in a different dose-range. Cell viability was analyzed on day 7 using Cell-titer Glo.
FIG. 6. Bliss and ZIP synergy scores of UM-UC-3 cells treated with a SMARCA2 degrader (compound 1) and a KRAS targeting therapy (MRTX849, AMG510, ARS1629 or JDQ443). Synergistic effect is likely where synergy scores are larger than 10.
as §1, §2, §3
UC-UM-3 is a human bladder transitional cell carcinoma cancer cell line that expresses SMARCA4 damaging mutation and KRAS G12C mutation. Combination therapy was applied to UM-UC-3 cells and % viable cells was calculated (FIG. 3). Bliss and ZIP scores are larger than 10, which indicates compound 1 and KRAS G12C inhibitors will likely show synergistic effects (FIG. 6).

[3] = system: NCI-H838 cells; assay: Cell viability (Cell-titer Glo), drug combination, control line NCI-H838; type: cell-based; conditions: combination of compound 1 with KRAS G12C inhibitor (MRTX849 or AMG510); NCI-H838, SMARCA4 damaging mutation/KRAS WT; day 7
Experimental: (§4) FIG. 4. […] Lung cancer NCI-H838 cells (SMARAC4 damaging mutation/KRAS WT) or NCI-H358 cells (SMARCA4 WT/KRAS G12C) were treated with KRAS G12C inhibitor (MRTX849 or AMG510) and with a SMARCA2 degrader (compound 1) in a different dose-range. Cell viability was analyzed on day 7 using Cell-titer Glo.
as §3, with “Synergistic effect is likely where synergy scores are larger than 10. MRTX849 (Adagrasib, Catalog No. S8884) and ARS-1620 (Catalog No. S8707) were purchased from Selleck Chemicals. AMG510 (Sotorasib, Catalog No. HY-114277) and JDQ-443 (Catalog No. HY-139612) were purchased from MedChemExpress.” left out

[4] = system: NCI-H358 cells; assay: Cell viability (Cell-titer Glo), drug combination, control line NCI-H358; type: cell-based; conditions: combination of compound 1 with KRAS G12C inhibitor (MRTX849 or AMG510); NCI-H358, SMARCA4 WT/KRAS G12C; day 7
Experimental: as §4
as §3, with “Synergistic effect is likely where synergy scores are larger than 10. MRTX849 (Adagrasib, Catalog No. S8884) and ARS-1620 (Catalog No. S8707) were purchased from Selleck Chemicals. AMG510 (Sotorasib, Catalog No. HY-114277) and JDQ-443 (Catalog No. HY-139612) were purchased from MedChemExpress.” left out

[5] = system: UM-UC-3 xenograft tumors; assay: Tumor volume in mice with UM-UC-3 xenograft tumors; type: in vivo; conditions: for tumor volume reduction (synergy): combination: compound 1 100 mg/kg s.c. Q3D and MRTX849 10 mg/kg p.o. QD, UM-UC-3
Experimental: FIG. 7. Plot of mean tumor volume vs. dosing time for UM-UC-3 cells treated with a SMARCA2 degrader (compound 1) and a KRAS targeting therapy (MRTX849).
(§5) The concentration of compound 1 was 100 mg/kg s.c. Q3D and the concentration of MRTX849 was 10 mg/kg p.o. QD. Statistical analysis used the two-tailed Mann-Whitney test versus vehicle, with *P<0.05, **P<0.01 and ***P<0.001.

[6] = system: H2030 xenograft tumors; assay: Tumor volume in mice with H2030 xenograft tumors; type: in vivo; conditions: for tumor volume reduction (synergy): combination: compound 1 100 mg/kg s.c. Q3D and MRTX849 10 mg/kg p.o. QD, H2030
Experimental: FIG. 8. Plot of mean tumor volume vs. dosing time for H2030 cells treated with a SMARCA2 degrader (compound 1) and a KRAS targeting therapy (MRTX849).
as §5

[7] = combination of compound 1 with KRAS G12C inhibitors, UM-UC-3, synergistic effect likely where scores larger than 10

C=CC(=O)N1CCN(c2ncnc3c(F)c(-c4c(O)cccc4F)c(Cl)cc23)CC1 [ARS-1620]
synergy (anti-proliferation effects) [1]: Excellent synergy
synergy (anti-proliferation effects) ([1]; listed as ARS1629): synergistic anti-proliferation effects
Bliss synergy score [1]: > 10
ZIP synergy score [1]: > 10
synergy (anti-proliferation effects) [2]: synergistic anti-proliferation effects

C=C(F)C(=O)N1CCN(c2nc(OC[C@@H]3CCCN3C)nc3c2CCN(c2cccc4cccc(Cl)c24)C3)C[C@@H]1CC#N [MRTX849, adagrasib]
synergy (anti-proliferation effects) [1]: synergistic anti-proliferation effects; also recorded: Excellent synergy
Bliss synergy score [1]: > 10
ZIP synergy score [1]: > 10
synergy (anti-proliferation effects) [2]: synergistic anti-proliferation effects
synergistic effects (cell viability) [3]: do not show synergistic effects
synergistic effects (cell viability) [4]: do not show synergistic effects
tumor volume reduction (synergy) [5]: synergistic effects for tumor volume reduction
tumor volume reduction (synergy) [6]: synergistic effects for tumor volume reduction

C=CC(=O)N1CCN(c2nc(=O)n(-c3c(C)ccnc3C(C)C)c3nc(-c4c(O)cccc4F)c(F)cc23)[C@@H](C)C1 (atropisomer, axis not shown) [JDQ-443]
synergy (anti-proliferation effects) [1]: synergistic anti-proliferation effects; also recorded: Excellent synergy
Bliss synergy score [1]: > 10
ZIP synergy score [1]: > 10
synergy (anti-proliferation effects) [2]: synergistic anti-proliferation effects

Cc1ncsc1-c1ccc([C@H](C)NC(=O)[C@@H]2C[C@@H](O)CN2C(=O)[C@@H](c2cc(O[C@@H](C)CN3CC[C@@H](N4CCN5c6cc(-c7ccccc7O)nnc6NC[C@H]5C4)C3)no2)C(C)C)cc1 [Compound 1]
synergy (anti-proliferation effects) [1]: synergistic anti-proliferation effects; also recorded: Excellent synergy; also recorded: potent synergistic interaction
Bliss synergy score [1]: > 10
ZIP synergy score [1]: > 10
synergy (anti-proliferation effects) [2]: synergistic anti-proliferation effects; also recorded: Excellent synergy; also recorded: potent synergistic interaction
Bliss synergy score [2, 7]: > 10
ZIP synergy score [2, 7]: > 10
synergistic effects (cell viability) [3]: do not show synergistic effects
synergistic effects (cell viability) [4]: do not show synergistic effects
enlargement of tumor volumes ([5]; combination of compound 1 and a KRAS targeting therapy, mice with UM-UC-3 xenograft tumors): can slow down the enlargement of tumor volumes
tumor volume reduction (synergy) [5]: synergistic effects for tumor volume reduction
enlargement of tumor volumes ([6]; combination of compound 1 and a KRAS targeting therapy, mice with H2030 xenograft tumors): can slow down the enlargement of tumor volumes
tumor volume reduction (synergy) [6]: synergistic effects for tumor volume reduction

— patent publication US20260373123A1, “IMPROVED TREATMENT OF CANCERS USING COMBINATIONS OF SMARCA2 DEGRADERS AND KRAS TARGETING THERAPIES” (Prelude Therapeutics Incorporated, priority 2022, published 2026)
